Data reported in PMC6521205 (Viruses, 2019).
Read-outs that look alike come from different tables or passages of the source.

How the values were obtained:
[1] = test system: ZIKV PRVABC59/Human/2015/Puerto Rico; assay: CellTiter-Glo activity assay, ZIKV PRVABC59-infected neural stem cells; assay type: cell-based, Zika virus; settings: for EC50: human neural stem cells, MOI 10, 72 h post-infection, CellTiter-Glo, ± SE, n = 4
[2] = test system: ZIKV H/PAN/2016/BEI-259634; assay: CellTiter-Glo activity assay, ZIKV H/PAN-infected neural stem cells; assay type: cell-based, Zika virus; settings: read-out: EC50 H/PAN ZIKV
human neural stem cells = assay: CellTiter-Glo toxicity in mock-infected neural stem cells; settings: mock-infected neural stem cells, 72 h, CellTiter-Glo, ± SE, n = 4
[3] = test system: ZIKV H/PAN/2016/BEI-259634; assay type: cell-based, Zika virus; settings: GSC 387 cells, H/PAN MOI 10, 72 h post-infection
[4] = test system: ZIKV H/PAN/2016/BEI-259634; assay: Plaque assay of ZIKV titers from treated hNSC cultures; assay type: cell-based, Zika virus; settings: human fetal neural stem cells, H/PAN MOI 0.1, 48 h post-infection
[5] = CellTiter-Glo toxicity in mock-infected neural stem cells; settings: human
ZIKV RdRP = ZIKV RdRP (Zika virus, UniProt A0A024B7W1); assay: Single nucleotide incorporation assay; assay type: biochemical; settings: 150 µM nucleotide, 37 °C; for observed rate of incorporation, kobs: 1 µM RdRP, 200 nM P/T substrate, single exponential fit, n = 2
Sequence of ZIKV RdRP (A0A024B7W1 2772-3423): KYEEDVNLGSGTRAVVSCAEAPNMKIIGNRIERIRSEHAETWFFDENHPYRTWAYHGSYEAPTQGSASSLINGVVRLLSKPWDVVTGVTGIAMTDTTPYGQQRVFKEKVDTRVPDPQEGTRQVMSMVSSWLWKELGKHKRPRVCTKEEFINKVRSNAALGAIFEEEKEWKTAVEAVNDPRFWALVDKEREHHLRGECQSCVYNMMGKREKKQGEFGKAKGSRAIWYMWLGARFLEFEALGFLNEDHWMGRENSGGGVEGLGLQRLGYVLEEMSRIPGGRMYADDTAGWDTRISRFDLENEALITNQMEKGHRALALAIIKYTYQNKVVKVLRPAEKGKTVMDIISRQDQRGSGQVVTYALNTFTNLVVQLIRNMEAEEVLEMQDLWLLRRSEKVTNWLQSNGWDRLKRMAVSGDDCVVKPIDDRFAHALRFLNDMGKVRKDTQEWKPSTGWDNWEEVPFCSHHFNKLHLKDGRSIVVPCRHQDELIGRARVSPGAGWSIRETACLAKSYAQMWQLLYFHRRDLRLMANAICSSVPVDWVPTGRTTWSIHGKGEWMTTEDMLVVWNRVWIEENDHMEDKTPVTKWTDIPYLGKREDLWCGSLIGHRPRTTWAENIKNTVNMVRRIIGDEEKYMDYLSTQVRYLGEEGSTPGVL

[6] = human neural stem cells, MOI 10, 72 h post-infection, CellTiter-Glo, ± SE, n = 4
[7] = Zika virus, Neural stem cell, in Homo sapiens

SMILES | EC50 [1] | EC50 [2, 6] | CC50 (human neural stem cells) | also measured
CC(C)OC(=O)C(C)NP(=O)(OCC1CC(O)C(n2ccc(N)nc2=O)O1)Oc1ccccc1 (centres unmarked) [3′-Deoxycytidine aryloxyl phosphoramidate] | > 50 µM | > 50 µM | > 50 µM | –
CC(C)OC(=O)[C@H](C)N[P@](=O)(OC[C@H]1O[C@@H](n2ccc(=O)[nH]c2=O)[C@](C)(F)[C@@H]1O)Oc1ccccc1 [Sofosbuvir, reference compound] | – | – | – | EC50 [1, 7]: 35 ± 1 µM; EC50 ([2]; Zika virus, Neural stem cell, 72 h): 46 ± 1 µM; protection from ZIKV-induced cytopathic effect ([3]; 30 µM compound): able to protect against the cytopathic effect; ZIKV titers by plaque assay ([4]; 30 µM compound): undetectable levels; CC50 at 72 h [5]: > 50 µM
CC(C)OC(=O)C(C)NP(=O)(OCC1OC(n2ccc(N)nc2=O)C(C)(O)C1O)Oc1ccccc1 (centres unmarked) [2′-C-Methylcytidine aryloxyl phosphoramidate] | 48 ± 1 µM | > 50 µM | – | –
COC1C(COP(=O)(NC(C)C(=O)OC(C)C)Oc2ccccc2)OC(n2ccc(=O)[nH]c2=O)C1O (centres unmarked) [3′-O-Methyluridine aryloxyl phosphoramidate] | > 50 µM | > 50 µM | > 50 µM | –
CSCCOP(=O)(NCCc1c[nH]c2ccccc12)OCC1OC(n2ccc(=O)[nH]c2=O)C(C)(O)C1O (centres unmarked) [(5-(2,4-dioxo-3,4-dihydropyrimidin-1(2H)-yl)-3,4-dihydroxy-4-methyltetrahydrofuran-2-yl)methyl (2-(methylthio)ethyl) (2-(1H-indol-3-yl)ethyl)phosphoramidate] | – | – | – | EC50 [1, 7]: > 50 µM; anti-ZIKV activity (in words) ([1]; neural stem cells, PRVABC59 and H/PAN strains, highest concentration 50 µM): completely abolished activity; EC50 ([2]; Zika virus, Neural stem cell, human neural stem cells, MOI 10, 72 h post-infection, CellTiter-Glo, ± SE, n = 4): > 50 µM; CC50 at 72 h ([5]; mock-infected neural stem cells (NSCs)): > 50 µM
CC(C)OC(=O)C(C)NP(=O)(OCC1OC(n2ccc(=O)[nH]c2=O)C(C)(O)C1O)Oc1ccccc1 (centres unmarked) [2′-C-methyluridine aryloxyl phosphoramidate] | 1 ± 1 µM | 2 ± 1 µM | 47 ± 1 µM | protection from ZIKV-induced cytopathic effect ([3]; 10 µM compound): better able to protect against ZIKV-induced cytopathic effect; protection from ZIKV-induced cytopathic effect ([3]; 30 µM compound): able to protect against the cytopathic effect; ZIKV titers by plaque assay ([4]; 10 µM compound): undetectable levels; ZIKV titers by plaque assay ([4]; 30 µM compound): undetectable levels
C#CC1(O)C(O)C(COP(=O)(NC(C)C(=O)OC(C)C)Oc2ccccc2)OC1n1ccc(=O)[nH]c1=O (centres unmarked) [2′-C-Ethynyluridine Aryloxy Phosphoramidate] | – | 0.8 ± 1 µM | > 50 µM | –
CC(C)OC(=O)C(C)NP(=O)(OCC1OC(n2cnc3c(N)ncnc32)C(C)(O)C1O)Oc1ccccc1 (centres unmarked) [2′-C-Methyladenosine aryloxyl phosphoramidate] | 10 ± 1 µM | 18 ± 1 µM | 42 ± 1 µM | –
COC1C(O)C(COP(=O)(NC(C)C(=O)OC(C)C)Oc2ccccc2)OC1n1ccc(N)nc1=O (centres unmarked) [2′-O-Methylcytidine aryloxyl phosphoramidate] | > 50 µM | > 50 µM | > 50 µM | –
O=c1ccn([C@@H]2O[C@H](COP(=O)(O)OP(=O)(O)OP(=O)(O)O)[C@@H](O)[C@H]2O)c(=O)[nH]1 [UTP] | – | – | – | observed rate of incorporation, kobs (ZIKV RdRP): 0.151 ± 0.004 % incorporation min^−1; time to full incorporation (ZIKV RdRP): ~ 30 min; time to half maximal incorporation (ZIKV RdRP): ≤ 5 min
C[C@@]1(F)[C@H](O)[C@@H](COP(=O)(O)OP(=O)(O)OP(=O)(O)O)O[C@H]1n1ccc(=O)[nH]c1=O [2′-fluoro-2′-C-methyluridine triphosphate] | – | – | – | observed rate of incorporation, kobs (ZIKV RdRP): 0.0085 ± 0.001 % incorporation min^−1; maximal incorporation (plateau) (ZIKV RdRP): 15%; time to half maximal incorporation (ZIKV RdRP): ~90 min
C[C@@]1(O)[C@H](O)[C@@H](COP(=O)(O)OP(=O)(O)OP(=O)(O)O)O[C@H]1n1ccc(=O)[nH]c1=O [2′-C-methyluridine triphosphate] | – | – | – | observed rate of incorporation, kobs (ZIKV RdRP): 0.016 ± 0.001 % incorporation min^−1; maximal incorporation (plateau) (ZIKV RdRP): 35%; time to half maximal incorporation (ZIKV RdRP): ~ 45 min
CC(C)OC(=O)C(C)NP(=O)(OCC1CC(O)C(n2cnc3c(N)ncnc32)O1)Oc1ccccc1 (centres unmarked) [3′-Deoxyadenosine aryloxyl phosphoramidate] | > 50 µM | > 50 µM | > 50 µM | –
